Data published in patent publication US20150005387A1, “COMPOSITION CONTAINING AGMATINE, AND USES THEREOF IN PREPARING DRUGS OR NEUTRACEUTICAL SUBSTANCES” (priority 2012, published 2015).

Columns and labels:
[1] = 2.67 g/day for 14 days, patients with a herniated disc; cited from earlier work
[2] = test system: Lewis lung carcinoma (3LL); test: Tumour growth (tumour volume), Example 1; assay type: in vivo, male C57BL/6 mice
Procedure: Male C57BL/6 mice, aged 9 weeks and weighing 20 g (Janvier breeding station, Le Genest St Isle, France), are acclimatized for 1 week before the start of the study. Handling of the animals is carried out in accordance with the ethical directives for experiments and according to the recommendations of the European Biomedical Research Association. Cells from Lewis lung carcinoma (3LL) were obtained from the ECACC (European Collection of Cell Cultures) and grafted by intramuscular injection in the hind paws of male C57BL/6 mice by the method described previously (Hergueux J. et al., Exp. […] The grafted mice are distributed randomly in the cages in groups of 5 individuals. The tumour becomes palpable some days after grafting took place. […] Cancer, 1984, 34(2), 277-281).

[3] = test system: Lewis lung carcinoma (3LL); test: Pulmonary metastatic invasion; assay type: in vivo, male C57BL/6 mice; conditions: for additional benefit in terms of metastatic process: added to the diet depleted of cadaverine, putrescine, spermidine and spermine
Procedure: Cells from Lewis lung carcinoma (3LL) were obtained from the ECACC (European Collection of Cell Cultures) and grafted by intramuscular injection in the hind paws of male C57BL/6 mice by the method described previously (Hergueux J. et al., Exp. […] The grafted mice are distributed randomly in the cages in groups of 5 individuals. […] The metastatic dissemination is expressed as percentage invasion relative to the total surface area of the lungs. The percentage metastatic invasion was measured in the mice of the ten groups described above, each having received different nutrition.

[4] = test system: putrescine, spermidine and spermine; test: Tumour levels of polyamines; assay type: in vivo, male C57BL/6 mice; conditions: for decrease of the tumour level of putrescine / decrease of the tumour level of spermidine / decrease of the tumour level of spermine: relative to diet containing a normal level of polyamines
Procedure: The level of polyamines is measured in the tumour formed at the site of inoculation of the Lewis carcinoma cells. […] After incubation for at least 16 h at 4° C., the cells are centrifuged for 15 minutes at 3500 rpm at 4° C. The supernatant that contains the polyamines is removed and is used for determination of the polyamines. The polyamines are determined by the method described previously (Seiler N et al., 1996, Cancer Research, 56, 5624-5630). The three principal polyamines present in mammals (putrescine, spermidine and spermine) were determined for the ten groups of mice that had each received different nutrition. The results are illustrated in FIG. 3.

Weight of the spleen = assay type: in vivo, male C57BL/6 mice
Source text: The animals are euthanized, then the spleen is removed from the mice and weighed using a precision balance. In addition to the ten groups of mice that each received a different diet, as described above, an eleventh group of animals was included for this study. These were male C57BL/6 mice having the same basic physiological characteristics as the mice in the other ten groups but that had not received grafts of Lewis carcinoma cells.

noradrenaline release = conditions: intravenous injection, 1 to 100 mg/kg; cited from earlier work
[5] = animals injected with 0.3 nmol; cited from earlier work
[6] = intrathecal injection, diabetic rats; cited from earlier work
ODC = target: T1, ODC (Homo sapiens, UniProt P11926); conditions: renal cells; cited from earlier work
T1 sequence (P11926 1-461): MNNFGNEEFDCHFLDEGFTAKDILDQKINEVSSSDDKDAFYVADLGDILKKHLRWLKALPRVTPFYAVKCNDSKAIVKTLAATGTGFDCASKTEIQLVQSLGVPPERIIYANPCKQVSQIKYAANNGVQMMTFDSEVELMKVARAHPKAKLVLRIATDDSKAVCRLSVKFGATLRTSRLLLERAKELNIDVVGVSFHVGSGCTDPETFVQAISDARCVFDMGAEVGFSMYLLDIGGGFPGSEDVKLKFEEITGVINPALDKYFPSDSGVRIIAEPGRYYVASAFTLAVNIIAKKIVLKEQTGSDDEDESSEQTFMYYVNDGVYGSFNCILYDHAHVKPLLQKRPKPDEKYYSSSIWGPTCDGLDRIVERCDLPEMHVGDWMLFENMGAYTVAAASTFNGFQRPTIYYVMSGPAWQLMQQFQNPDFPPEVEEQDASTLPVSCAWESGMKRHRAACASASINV

[7] = test system: cell lines from hepatocarcinomas; conditions: in vitro, 10 μm to 1 mM; cited from earlier work
[8] = test system: Lewis lung carcinoma (3LL); test: Tumour growth (tumour volume) in combination with an anticancer drug, Example 2; assay type: in vivo, male C57BL/6 mice
Procedure: Male C57BL/6 mice, aged 9 weeks and weighing 20 g (Janvier breeding station, Le Genest St Isle, France), are acclimatized for 1 week before the start of the study. Handling of the animals is carried out in accordance with the ethical directives for experiments and according to the recommendations of the European Biomedical Research Association.
After 20 days, the tumour cells are collected and dispersed in PBS, counted and diluted to reach 0.5×10^6 cells/100 μL, before being grafted in the right hind paw of the mice. The grafted mice are distributed randomly in the cages in groups of 5 individuals.
The tumour becomes palpable some days after the grafting took place. The animals are sacrificed 19 days after grafting the tumour cells.
The treatment is set up 6 days after grafting, when the tumour is palpable, and is administered 7 days a week and comprises the intake ad libitum of the normal nutrition or of the test solutes as well as drinking water.
The animal model (C57BL/6 mouse) and the tumour model (Lewis carcinoma) are described above. The mice are grafted with 0.5×10^6 tumour cells, by intramuscular injection in one of the hind paws.

[9] = depleted diet + agmatine 18.4 mg/kg of food
[10] = depleted diet + agmatine 184 mg/kg of food
[11] = depleted diet + agmatine 1840 mg/kg of food
[12] = cyclophosphamide (CY) 9 mg·kg^−1·week^−1
[13] = cyclophosphamide (CY) 90 mg·kg^−1·week^−1
[14] = tumour, neomycin based on a diet depleted of cadaverine, putrescine, spermidine and spermine

For `N=C(N)NCCCCN.O=S(=O)(O)O` [agmatine sulphate], which perception of pain [1] is on record?
The perception of pain was “attenuated perception of pain”.

Which results are given for `N=C(N)NCCCCN` [agmatine]?
increase of the antitumour effect of the diet depleted of cadaverine, putrescine, spermidine and spermine ([2]; agmatine 18.4 mg/kg of food): 8%; increase of the antitumour effect of the diet depleted of cadaverine, putrescine, spermidine and spermine ([2]; agmatine 184 mg/kg of food): 3%; increase of the antitumour effect of the diet depleted of cadaverine, putrescine, spermidine and spermine ([2]; agmatine 1840 mg/kg of food): 13%; additional benefit in terms of metastatic process [3]: does not appear to bring any additional benefit; decrease of the tumour level of putrescine [4, 9]: 35%; decrease of the tumour level of spermidine [4, 9]: 10%; decrease of the tumour level of spermine [4, 9]: 31%; decrease of the tumour level of putrescine [4, 10]: 14%; decrease of the tumour level of spermidine [4, 10]: 12%; decrease of the tumour level of spermine [4, 10]: 24%; decrease of the tumour level of putrescine [4, 11]: 50%; decrease of the tumour level of spermidine [4, 11]: 10%; decrease of the tumour level of spermine [4, 11]: 16%; additional effect on the weight of the spleen (Weight of the spleen; agmatine added to the depleted diet, regardless of the dose): no additional effect; blood pressure (noradrenaline release): decrease in blood pressure; perception of pain (allodynia) [5]: anti-allodynic effect; tactile or thermal allodynia and hyperalgesia [6]: suppresses tactile or thermal allodynia as well as hyperalgesia; inhibition of ODC / synthesis of polyamines (ODC): dose-dependent inhibition of ODC; cell cycle [7]: stopping of the cancer cells in phase G2/M of the cell cycle

Which results are given for `O=P1(N(CCCl)CCCl)NCCCO1` (stereo not drawn) [cyclophosphamide]?
Monitoring of tumour volume (in cm^3) D0 [8, 12]: 0 cm^3; Monitoring of tumour volume (in cm^3) D0 [8, 13]: 0 cm^3; Monitoring of tumour volume (in cm^3) D2 [8, 12]: 0.08 cm^3; Monitoring of tumour volume (in cm^3) D2 [8, 13]: 0.02 cm^3; Monitoring of tumour volume (in cm^3) D5 [8, 12]: 0.2 cm^3; Monitoring of tumour volume (in cm^3) D5 [8, 13]: 0.05 cm^3; Monitoring of tumour volume (in cm^3) D8 [8, 12]: 0.296 cm^3; Monitoring of tumour volume (in cm^3) D8 [8, 13]: 0.074 cm^3; Monitoring of tumour volume (in cm^3) D10 [8, 12]: 0.64 cm^3; Monitoring of tumour volume (in cm^3) D10 [8, 13]: 0.16 cm^3; Monitoring of tumour volume (in cm^3) D12 [8, 12]: 1.2 cm^3; Monitoring of tumour volume (in cm^3) D12 [8, 13]: 0.3 cm^3; Monitoring of tumour volume (in cm^3) D15 [8, 12]: 2.64 cm^3; Monitoring of tumour volume (in cm^3) D15 [8, 13]: 0.66 cm^3; Monitoring of tumour volume (in cm^3) D18 [8, 12]: 3.0 cm^3; Tumour volume on D18 (% relative to UAR) [8, 12]: −20%; Monitoring of tumour volume (in cm^3) D18 [8, 13]: 0.7 cm^3; Tumour volume on D18 (% relative to UAR) [8, 13]: −81%

Which “evolution of tumour volume” value ([2]; neomycin 2 mg/ml in drinking water, diet containing a normal level of polyamines) does the source give for neomycin here?
The value was “no effect”.

And the “mean value of pulmonary metastatic invasion” value ([3]; 19 days after grafting, no agmatine, neomycin where given 2 mg/ml in drinking water)?
The value was 11%.

And the “additional benefit in terms of metastatic process” value [3]?
The value was “does not lead to any additional benefit”.

What about the “decrease in metastatic invasion” value ([3]; relative to mice on a diet containing a normal level of polyamines without antibiotic) of the same molecule?
Its value is 60%.

What about the “decrease in the level of putrescine” value ([4]; tumour, based on a normal diet) of the same molecule?
Its value is 17%.

And the “effect on the level of spermidine” value ([4]; tumour, based on a normal diet)?
Its value is “no effect”.

And the “increase in the level of spermine” value ([4]; tumour, based on a normal diet)?
Its value is 7%.

What about the “decrease in the level of spermine” value [4, 14] of the same molecule?
The value was 5%.

What about the “increase in the level of putrescine” value [4, 14] of the same molecule?
Its value is 17%.

What about the “increase in the level of spermidine” value [4, 14] of the same molecule?
Its value is 24%.

What about the “mean value of the weight of the spleen” value (Weight of the spleen; grafted mice, 19 days after grafting, no agmatine, neomycin where given 2 mg/ml in drinking water) of the same molecule?
Its value is 151 mg.

What about the “effect of neomycin on the weight of the spleen” value (Weight of the spleen; groups 2, 4 and 6 (normal diet; depleted diet; depleted diet + agmatine 18.4 mg/kg of food)) of the same molecule?
The value was “decrease in the weight of the spleen”.

What about the “effect of neomycin on the weight of the spleen” value (Weight of the spleen; groups 8 and 10 (depleted diet + agmatine 184 and 1840 mg/kg of food)) of the same molecule?
Its value is “increase in the weight of the spleen”.
